Reference: patent US20050119288A1, “Dosing schedule for a novel anticancer agent” (Pfizer Inc, priority 2003, published 2005)

What was measured:
[1] = system: SK-OV-3 tumors; test: SK-OV-3 xenograft tumor growth in athymic mice; type: in vivo, human; settings: for % Growth inhibition / Tumor volume Day 1 (Mean ± SE) / Tumor volume Day 18 (Mean ± SE): PO
Text: (§1) The in vivo anti-tumor activity of the compounds for use in the methods of the present invention can be determined by the amount of inhibition of tumor growth by a test compound relative to a control. The tumor growth inhibitory effects of various compounds can be measured according to the method of Corbett T. H., et al., “Tumor Induction Relationships in Development of Transplantable Cancers of the Colon in Mice for Chemotherapy Assays, with a Note on Carcinogen Structure”, Cancer Res., 35, 2434-2439 (1975) and Corbett T. H., et al., “A Mouse Colon-tumor Model for Experimental Therapy”, Cancer Chemother. Rep. (Part 2)”, 5, 169-186 (1975), with slight modifications. Tumors can be induced in the left flank of mice by subcutaneous (sc) injection of 1-5 million log phase cultured tumor cells suspended in 0.1 ml RPMI 1640 medium. After sufficient time has elapsed for the tumors to become palpable (˜100-150 mm^3 in size/5-6 mm in diameter) the test animals (athymic female mice) are treated with test compound (formulated at a concentration of 10 to 15 mg/ml in 5 Gelucire or 0.5% methyl cellulose) by the intravenous (iv) or oral (po) route of administration once or twice daily for 7 to 29 consecutive days. In order to determine an anti-tumor effect, the tumor is measured in millimeters with a Vernier caliper across two diameters and the tumor size (mm^3) is calculated using the formula: Tumor size (mm^3)=(W×W)/2×L (L=length and W=width), according to the methods of Geran, R. I., et al. “Protocols for Screening Chemical Agents and Natural Products Against Animal Tumors and Other Biological Systems”, Third Edition, Cancer Chemother. Rep., 3, 1-104 (1972). Results are expressed as percent inhibition, according to the formula: Inhibition Growth (%)=[100-{(% Growth of Treated/% Growth of Control)×100}]. The flank site of tumor implantation provides reproducible dose/response effects for a variety of chemotherapeutic agents, and the method of measurement (tumor diameter) is a reliable method for assessing tumor growth rates.
(§2) SK-OV-3 cells obtained from ATCC (Rockville, Md.) were grown in McCoy's medium containing 10% fetal bovine serum and pen/strep. Exponentially growing cells were harvested and inoculated SC (5 million cells/animal) into female athymic mice. The tumor measurements and body weight changes were obtained on days 1, 3, 6, 10, 13 and 18. Tumor volume was calculated by the following formula: Tumor volume (mm^3)═(W×W)/2×L (L=length & W=width). Blood samples (˜50 μl) were isolated at 0.5, 1, 2, 4 and 8 hrs after dosing on day 18 for PK-analysis. Tumors were isolated at 0.5 hr post-dosing on day 18 for PD-analysis by ELISA. The p-erbB2 reduction, tumor volume and body weight changes in control and test compound treated animals are shown below in Table 2.

[2] = Body weight and tolerability, SK-OV-3 study; type: in vivo, mice; settings: PO
Experimental: as §2

[3] = system: MDA-MB-453 tumors; test: MDA-MB-453 xenograft tumor growth in athymic mice; type: in vivo, human; settings: PO; for % Growth inhibition: 29 days
Text: as §1
(§3) Study Design: Exponentially growing MDA-MB-453 cells (DMEM/F12 with 10% FBS, and pen/strep [Gibco]) were harvested and inoculated SC (5 million cells/animal) into female athymic mice. MDA-MB-453 tumor bearing mice (˜100 mm^3 in size, N=64) were randomized in 8 groups consisting 8 animals each. Animals were treated with vehicle (PO, QD or BID) or the test compound (PO, QD or BID) as described in Table 6. The tumor measurements and body weight changes were obtained on days 1, 3, 7, 10, 14, 17, 21, 24, and 29. Tumor volume was calculated by the following formula: Tumor volume (mm^3)═(W×W)/2×L (L=length & W=width). Blood samples (˜50 μl) were isolated at 0.5, 1, 2, 4 and 8 hrs after dosing on day 29 for PK-analysis. Tumors were isolated at 0.5 hr post-dosing on day 29 for PD-analysis by ELISA.
Statistical Analysis: ANOVA was conducted on the percentage growth data and planned comparisons were conducted between like-doses. The data were log transformed for the analysis due to the distribution of the values. The Dunnett-Tamahane procedure was used for the multiple comparison analysis.

[4] = target: erbB2 receptor autophosphorylation (Homo sapiens, UniProt P04626); test: p-erbB2 reduction in MDA-MB-453 tumors by ELISA; type: in vivo
Experimental: as §3

[5] = Body weight and tolerability, FRE/erbB2 study
Experimental: A 1.15 mg/ml solution of the test compound was infused IV at 550 μl/hr for 2 minute ramped infusions followed by 50 μl/hr for 15 min or 4 hour daily infusions. […] Athymic female mice bearing FRE/erbB2 tumors (˜100 mm^3 in size) were treated with vehicle, the test compound orally or the test compound intravenously. Body weight changes and tumor measurements were obtained at regular intervals (Days 1, 3, 5, and 7). The study was carried out for 7 days.

Chain of erbB2 receptor autophosphorylation (P04626 23-1255): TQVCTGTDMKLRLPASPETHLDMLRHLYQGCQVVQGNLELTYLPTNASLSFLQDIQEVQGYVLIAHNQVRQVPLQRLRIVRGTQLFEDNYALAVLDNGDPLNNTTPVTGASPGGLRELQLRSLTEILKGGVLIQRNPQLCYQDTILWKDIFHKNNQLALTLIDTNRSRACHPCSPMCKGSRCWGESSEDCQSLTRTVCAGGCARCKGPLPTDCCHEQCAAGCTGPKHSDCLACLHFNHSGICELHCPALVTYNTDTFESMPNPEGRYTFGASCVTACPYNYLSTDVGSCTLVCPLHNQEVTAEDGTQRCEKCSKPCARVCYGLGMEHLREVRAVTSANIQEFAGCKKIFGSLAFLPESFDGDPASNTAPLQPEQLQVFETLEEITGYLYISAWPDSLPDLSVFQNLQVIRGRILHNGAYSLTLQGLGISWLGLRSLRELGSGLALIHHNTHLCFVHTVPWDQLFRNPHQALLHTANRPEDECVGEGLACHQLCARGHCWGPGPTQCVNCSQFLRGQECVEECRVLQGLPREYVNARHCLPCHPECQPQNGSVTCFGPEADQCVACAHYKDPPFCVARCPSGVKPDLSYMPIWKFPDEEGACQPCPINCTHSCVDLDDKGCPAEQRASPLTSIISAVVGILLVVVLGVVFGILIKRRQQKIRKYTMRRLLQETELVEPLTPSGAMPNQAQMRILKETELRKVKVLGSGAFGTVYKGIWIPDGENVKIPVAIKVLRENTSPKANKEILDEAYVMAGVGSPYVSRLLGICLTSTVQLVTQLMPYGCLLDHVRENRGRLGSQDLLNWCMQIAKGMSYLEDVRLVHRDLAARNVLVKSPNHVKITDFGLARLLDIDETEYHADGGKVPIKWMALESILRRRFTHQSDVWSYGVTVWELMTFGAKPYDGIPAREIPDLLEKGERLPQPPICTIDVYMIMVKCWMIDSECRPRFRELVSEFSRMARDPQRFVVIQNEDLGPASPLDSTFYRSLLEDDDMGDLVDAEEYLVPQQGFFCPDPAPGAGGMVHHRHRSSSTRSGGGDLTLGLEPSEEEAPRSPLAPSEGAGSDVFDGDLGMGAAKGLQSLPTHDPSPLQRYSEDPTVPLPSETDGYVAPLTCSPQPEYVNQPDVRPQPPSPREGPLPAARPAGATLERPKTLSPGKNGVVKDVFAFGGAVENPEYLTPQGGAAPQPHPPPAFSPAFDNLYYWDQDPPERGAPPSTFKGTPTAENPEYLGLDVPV

In the case of `COCC(=O)NC/C=C/c1ccc2ncnc(Nc3ccc(Oc4ccc(C)nc4)c(C)c3)c2c1` [Test Compound, E-2-Methoxy-N-(3-{4-(3-methyl-4-(6-methyl-pyridin-3-yloxy)-phenylamino)-quinazolin-6-yl}-allyl)-acetamide], the “tumor growth inhibition, 100 mg/kg BID relative to 200 mg/kg QD” value ([1]; 18 days) is reported as 2 fold, the “% Growth inhibition” value ([1]; BID 25 mg/kg (Total Daily Dose = 50 mg/kg), 18 days) is reported as 29% and the “% Growth inhibition” value ([1]; BID 25 mg/kg (Total Daily Dose = 50 mg/kg), 18 days, listed as test compound) is reported as “Approximately 29%”. For the same compound, the “Tumor volume Day 1 (Mean ± SE)” value ([1]; BID 25 mg/kg) was 93 ± 12 mm^3, the “Tumor volume Day 18 (Mean ± SE)” value ([1]; BID 25 mg/kg) was 281 ± 42 mm^3 and the “% Growth inhibition” value ([1]; BID 50 mg/kg (Total Daily Dose = 100 mg/kg), 18 days) was 45%. The “Tumor volume Day 1 (Mean ± SE)” value ([1]; BID 50 mg/kg) was 94 ± 13 mm^3, the “Tumor volume Day 18 (Mean ± SE)” value ([1]; BID 50 mg/kg) was 218 ± 38 mm^3 and the “% Growth inhibition” value ([1]; BID 100 mg/kg (Total Daily Dose = 200 mg/kg), 18 days) was 71%. The “Tumor volume Day 1 (Mean ± SE)” value ([1]; BID 100 mg/kg) was 94 ± 13 mm^3, the “Tumor volume Day 18 (Mean ± SE)” value ([1]; BID 100 mg/kg) was 115 ± 24 mm^3 and the “% Growth inhibition” value ([1]; QD 50 mg/kg, 18 days) was 2%. For the same compound, the “% Growth inhibition” value ([1]; QD 50 mg/kg, 18 days, listed as test compound) was “non-efficacious”, the “Tumor volume Day 1 (Mean ± SE)” value ([1]; QD 50 mg/kg) was 98 ± 14 mm^3 and the “Tumor volume Day 18 (Mean ± SE)” value ([1]; QD 50 mg/kg) was 390 ± 38 mm^3. For the same compound, the “% Growth inhibition” value ([1]; QD 100 mg/kg, 18 days) was 23%, the “Tumor volume Day 1 (Mean ± SE)” value ([1]; QD 100 mg/kg) was 97 ± 14 mm^3 and the “Tumor volume Day 18 (Mean ± SE)” value ([1]; QD 100 mg/kg) was 306 ± 36 mm^3. The “% Growth inhibition” value ([1]; QD 200 mg/kg, 18 days) was 36%, the “Tumor volume Day 1 (Mean ± SE)” value ([1]; QD 200 mg/kg) was 98 ± 14 mm^3 and the “Tumor volume Day 18 (Mean ± SE)” value ([1]; QD 200 mg/kg) was 254 ± 39 mm^3. The “average body weight Day 1” value ([2]; BID 25 mg/kg) was 24 g, the “average body weight Day 18” value ([2]; BID 25 mg/kg) was 26 g and the “average body weight Day 1” value ([2]; BID 50 mg/kg) was 24 g. The “average body weight Day 18” value ([2]; BID 50 mg/kg) was 25 g, the “average body weight Day 1” value ([2]; BID 100 mg/kg) was 23 g and the “average body weight Day 18” value ([2]; BID 100 mg/kg) was 23 g. For the same compound, the “average body weight Day 1” value ([2]; QD 50 mg/kg) was 23 g, the “average body weight Day 18” value ([2]; QD 50 mg/kg) was 24 g and the “average body weight Day 1” value ([2]; QD 100 mg/kg) was 23 g. The “average body weight Day 18” value ([2]; QD 100 mg/kg) was 25 g, the “average body weight Day 1” value ([2]; QD 200 mg/kg) was 23 g and the “average body weight Day 18” value ([2]; QD 200 mg/kg) was 24 g. For the same compound, the “tolerability, body weight loss or animal mortality” value ([2]; QD or BID, 18 days) was “well tolerated and there was no body weight loss or animal mortality”, the “% Growth inhibition” value ([3]; BID 25 mg/kg (Total Daily Dose = 50 mg/kg)) was 19% and the “Tumor volume Day 1 (Mean ± SE)” value ([3]; BID 25 mg/kg) was 107 ± 4 mm^3. The “Tumor volume Day 29 (Mean ± SE)” value ([3]; BID 25 mg/kg) was 252 ± 24 mm^3, the “% Growth inhibition” value ([3]; BID 50 mg/kg (Total Daily Dose = 100 mg/kg)) was 66% and the “Tumor volume Day 1 (Mean ± SE)” value ([3]; BID 50 mg/kg) was 107 ± 4 mm^3. The “Tumor volume Day 29 (Mean ± SE)” value ([3]; BID 50 mg/kg) was 164 ± 13 mm^3, the “% Growth inhibition” value ([3]; BID 100 mg/kg (Total Daily Dose = 200 mg/kg)) was 83% and the “Tumor volume Day 1 (Mean ± SE)” value ([3]; BID 100 mg/kg) was 107 ± 4 mm^3. For the same compound, the “Tumor volume Day 29 (Mean ± SE)” value ([3]; BID 100 mg/kg) was 137 ± 6 mm^3, the “% Growth inhibition” value ([3]; QD 50 mg/kg) was 38% and the “Tumor volume Day 1 (Mean ± SE)” value ([3]; QD 50 mg/kg) was 107 ± 4 mm^3. For the same compound, the “Tumor volume Day 29 (Mean ± SE)” value ([3]; QD 50 mg/kg) was 213 ± 19 mm^3, the “% Growth inhibition” value ([3]; QD 100 mg/kg) was 63% and the “Tumor volume Day 1 (Mean ± SE)” value ([3]; QD 100 mg/kg) was 107 ± 4 mm^3. For the same compound, the “Tumor volume Day 29 (Mean ± SE)” value ([3]; QD 100 mg/kg) was 175 ± 14 mm^3, the “% Growth inhibition” value ([3]; QD 200 mg/kg) was 100% and the “Tumor volume Day 1 (Mean ± SE)” value ([3]; QD 200 mg/kg) was 107 ± 4 mm^3. For the same compound, the “Tumor volume Day 29 (Mean ± SE)” value ([3]; QD 200 mg/kg) was 108 ± 9 mm^3, the inhibition in vivo at 25 mg/kg ([4]; MDA-MB-453, po, 0.5 h, PO, BID 25 mg/kg (Total Daily Dose = 50 mg/kg), 0.5 hr post-dosing on day 29) was 69% and the inhibition in vivo at 50 mg/kg ([4]; MDA-MB-453, po, 0.5 h, PO, BID 50 mg/kg (Total Daily Dose = 100 mg/kg), 0.5 hr post-dosing on day 29) was 75%. For the same compound, the inhibition in vivo at 100 mg/kg ([4]; MDA-MB-453, po, 0.5 h, PO, BID 100 mg/kg (Total Daily Dose = 200 mg/kg), 0.5 hr post-dosing on day 29) was 79%, the inhibition in vivo at 50 mg/kg ([4]; MDA-MB-453, po, 0.5 h, PO, QD 50 mg/kg, 0.5 hr post-dosing on day 29) was 78% and the inhibition in vivo at 100 mg/kg ([4]; MDA-MB-453, po, 0.5 h, PO, QD 100 mg/kg, 0.5 hr post-dosing on day 29) was 88%. For the same compound, the inhibition in vivo at 200 mg/kg ([4]; MDA-MB-453, po, 0.5 h, PO, QD 200 mg/kg, 0.5 hr post-dosing on day 29) was 92%, the “reduction of p-erbB2” value ([4]; span over QD (50-200 mg/kg) and BID (25-100 mg/kg) dosings) was 69-92% and the “average body weight Day 1” value ([5]; 1.4 mg/kg IV, QD, 15 min/day) was 23 g. For the same compound, the “average body weight Day 7” value ([5]; 1.4 mg/kg IV, QD, 15 min/day) was 24 g, the “average body weight Day 1” value ([5]; 10.7 mg/kg IV, 4 hr/day) was 22 g and the “average body weight Day 7” value ([5]; 10.7 mg/kg IV, 4 hr/day) was 22 g. The “average body weight Day 1” value ([5]; 25 mg/kg PO, QD) was 21 g, the “average body weight Day 7” value ([5]; 25 mg/kg PO, QD) was 22 g and the “body weight loss or mortality” value ([5]; FRE/erbB2 study, 7 days) was “did not cause any body weight loss or mortality”.
